Measured values: patent publication US11292807B2 (OCEANS LTD., priority 2015, dated 2022)
Read-outs that look alike come from different tables or passages of the source.

What was measured:
[1] = system: MDA-MB; experiment: cells; conditions: Homo sapiens, read-out: Average cell viability, MDA-MB
[2] = in vitro; conditions: human, Average cell viability
Experimental: (§1) Stock solutions of the extracts were prepared in dimethylsulfoxide (DMSO) at 10 mg/mL and stored in 200 μl aliquots at −20° C. until analysis. This preparation ensured that the DMSO delivered to cells in culture never exceeded 1%.
(§2) Prepared extracts were assessed following chronic exposure conditions in which cells were seeded at 2×10^3 cells/well (96 well-plate) and incubated with test compounds for 72 h. Each compound was evaluated over a range of concentrations (0, 10, 25, 50 or 100 μg/ml). Cell proliferation was initially assessed using a standard colorimetric indicator of metabolic activity (CIMA) assay. In this assay, tetrazole reduction was evaluated as a measure of metabolic function that evaluates mitochondrial activity to determine the extent of cell proliferation within a culture. This assay is based on the reduction of yellow tetrazolium salt to purple formazan by mitochondrial reductases enzyme in viable cells, resulting in a color changed that confers a change in absorbance.

[3] = system: PC3; experiment: CIMA assay, cell viability, PC3; conditions: for Fold change in viability AVG: PC3
[4] = system: CCD1079SK (fibroblast, noncancerous but proliferating); experiment: CIMA assay, cell viability, CCD1079SK; conditions: CCD
Experimental: as §1, §2

[5] = system: A549 (lung carcinoma); experiment: CIMA assay (colorimetric indicator of metabolic activity), cell viability, A549; conditions: for Fold change in viability AVG: A549
Experimental: as §1, §2

[6] = system: U373 (glioblastoma-astrocytoma); experiment: CIMA assay, cell viability, U373; conditions: for Fold change in viability AVG: U373
[7] = system: MDA-MB; conditions: MDA-MB
[8] = system: THP-1 (acute monocytic leukemia); experiment: CIMA assay, cell viability, THP-1; conditions: for Fold change in viability AVG: THP-1
Experimental: as §1, §2

[9] = system: SKOV3 (ovarian adenocarcinoma); experiment: CIMA assay, cell viability, SKOV3; conditions: for Fold change in viability AVG: SKOV

Question: Which viability at 1 µg/mL ([1]; 1 ug/mL) does the source give for `CC/C=C\C/C=C\C/C=C\CCCCCCCC(=O)O` [Compound 19, α-linolenic acid] here?
Answer: Its viability at 1 µg/mL is 108%.

Question: What about the viability at 10 µg/mL ([1]; 10 ug/mL) of the same molecule?
Answer: The viability at 10 µg/mL was 108%.

Question: And the viability at 50 µg/mL ([1]; 50 ug/mL)?
Answer: The viability at 50 µg/mL was 81%.

Question: What about the viability at 100 µg/mL ([1]; 100 ug/mL) of the same molecule?
Answer: The viability at 100 µg/mL was 24%.

Question: What about the viability at 72 h, 1 ug/mL [2] of the same molecule?
Answer: The viability at 72 h, 1 ug/mL was 109%.

Question: And the viability at 72 h, 10 ug/mL [2]?
Answer: Its viability at 72 h, 10 ug/mL is 105%.

Question: And the viability at 72 h, 50 ug/mL [2]?
Answer: The viability at 72 h, 50 ug/mL was 77%.

Question: And the viability at 72 h, 100 ug/mL [2]?
Answer: The viability at 72 h, 100 ug/mL was 21%.

Question: What about the viability at 1 µg/mL ([3]; Homo sapiens, PC-3, read-out: Average cell viability, PC3, 1 ug/mL) of the same molecule?
Answer: The viability at 1 µg/mL was 105%.

Question: And the viability at 10 µg/mL ([3]; Homo sapiens, PC-3, read-out: Average cell viability, PC3, 10 ug/mL)?
Answer: The viability at 10 µg/mL was 103%.

Question: And the viability at 50 µg/mL ([3]; Homo sapiens, PC-3, read-out: Average cell viability, PC3, 50 ug/mL)?
Answer: The viability at 50 µg/mL was 88%.

Question: And the viability at 100 µg/mL ([3]; Homo sapiens, PC-3, read-out: Average cell viability, PC3, 100 ug/mL)?
Answer: The viability at 100 µg/mL was 11%.

Question: What about the “PC3 AVG” value ([3]; PC3, sample at 1 ug/mL) of the same molecule?
Answer: The value was 1.09.

Question: What about the “PC3 AVG” value ([3]; PC3, sample at 10 ug/mL) of the same molecule?
Answer: The value was 1.07.

Question: And the “PC3 AVG” value ([3]; PC3, sample at 50 ug/mL)?
Answer: Its value is 0.91.

Question: What about the “PC3 AVG” value ([3]; PC3, sample at 100 ug/mL) of the same molecule?
Answer: Its value is 0.12.

Question: What about the “Fold change in viability AVG” value ([3]; 1 ug/mL) of the same molecule?
Answer: The value was 1.09.

Question: What about the “Fold change in viability AVG” value ([3]; 10 ug/mL) of the same molecule?
Answer: Its value is 1.07.

Question: What about the “Fold change in viability AVG” value ([3]; 50 ug/mL) of the same molecule?
Answer: Its value is 0.91.

Question: What about the “Fold change in viability AVG” value ([3]; 100 ug/mL) of the same molecule?
Answer: Its value is 0.12.

Question: And the “Fold change in viability AVG” value ([4]; 1 ug/mL)?
Answer: Its value is 1.20.

Question: And the “Fold change in viability AVG” value ([4]; 10 ug/mL)?
Answer: The value was 1.16.

Question: What about the “Fold change in viability AVG” value ([4]; 50 ug/mL) of the same molecule?
Answer: Its value is 0.85.

Question: And the “Fold change in viability AVG” value ([4]; 100 ug/mL)?
Answer: Its value is 0.23.

Question: And the “A549 AVG” value ([5]; A549, sample at 1 ug/mL)?
Answer: Its value is 1.16.

Question: What about the “A549 AVG” value ([5]; A549, sample at 10 ug/mL) of the same molecule?
Answer: Its value is 1.16.

Question: What about the “A549 AVG” value ([5]; A549, sample at 50 ug/mL) of the same molecule?
Answer: The value was 1.02.

Question: And the “A549 AVG” value ([5]; A549, sample at 100 ug/mL)?
Answer: The value was 0.67.

Question: And the “Fold change in viability AVG” value ([5]; 1 ug/mL)?
Answer: The value was 1.16.

Question: What about the “Fold change in viability AVG” value ([5]; 10 ug/mL) of the same molecule?
Answer: The value was 1.16.

Question: And the “Fold change in viability AVG” value ([5]; 50 ug/mL)?
Answer: Its value is 1.02.

Question: And the “Fold change in viability AVG” value ([5]; 100 ug/mL)?
Answer: Its value is 0.67.

Question: What about the viability at 1 µg/mL ([5]; Homo sapiens, A549, read-out: Average cell viability, A549, 1 ug/mL) of the same molecule?
Answer: The viability at 1 µg/mL was 99%.

Question: What about the viability at 10 µg/mL ([5]; Homo sapiens, A549, read-out: Average cell viability, A549, 10 ug/mL) of the same molecule?
Answer: Its viability at 10 µg/mL is 100%.

Question: And the viability at 50 µg/mL ([5]; Homo sapiens, A549, read-out: Average cell viability, A549, 50 ug/mL)?
Answer: The viability at 50 µg/mL was 88%.

Question: And the viability at 100 µg/mL ([5]; Homo sapiens, A549, read-out: Average cell viability, A549, 100 ug/mL)?
Answer: Its viability at 100 µg/mL is 57%.

Question: What about the viability at 1 µg/mL ([6]; Homo sapiens, U373 MG, read-out: Average cell viability, U373, 1 ug/mL) of the same molecule?
Answer: Its viability at 1 µg/mL is 116%.

Question: And the viability at 10 µg/mL ([6]; Homo sapiens, U373 MG, read-out: Average cell viability, U373, 10 ug/mL)?
Answer: The viability at 10 µg/mL was 108%.

Question: What about the viability at 50 µg/mL ([6]; Homo sapiens, U373 MG, read-out: Average cell viability, U373, 50 ug/mL) of the same molecule?
Answer: Its viability at 50 µg/mL is 57%.

Question: What about the viability at 100 µg/mL ([6]; Homo sapiens, U373 MG, read-out: Average cell viability, U373, 100 ug/mL) of the same molecule?
Answer: The viability at 100 µg/mL was 10%.

Question: And the “U373 AVG” value ([6]; U373, sample at 1 ug/mL)?
Answer: Its value is 1.18.

Question: What about the “U373 AVG” value ([6]; U373, sample at 10 ug/mL) of the same molecule?
Answer: The value was 1.10.

Question: And the “U373 AVG” value ([6]; U373, sample at 50 ug/mL)?
Answer: Its value is 0.58.

Question: What about the “U373 AVG” value ([6]; U373, sample at 100 ug/mL) of the same molecule?
Answer: Its value is 0.10.

Question: What about the “Fold change in viability AVG” value ([6]; 1 ug/mL) of the same molecule?
Answer: Its value is 1.18.

Question: And the “Fold change in viability AVG” value ([6]; 10 ug/mL)?
Answer: Its value is 1.10.

Question: And the “Fold change in viability AVG” value ([6]; 50 ug/mL)?
Answer: Its value is 0.58.

Question: What about the “Fold change in viability AVG” value ([6]; 100 ug/mL) of the same molecule?
Answer: The value was 0.10.

Question: What about the “MDA-MB AVG” value ([7]; sample at 1 ug/mL) of the same molecule?
Answer: Its value is 1.17.

Question: What about the “MDA-MB AVG” value ([7]; sample at 10 ug/mL) of the same molecule?
Answer: The value was 1.18.

Question: What about the “MDA-MB AVG” value ([7]; sample at 50 ug/mL) of the same molecule?
Answer: The value was 0.88.

Question: What about the “MDA-MB AVG” value ([7]; sample at 100 ug/mL) of the same molecule?
Answer: Its value is 0.26.

Question: And the “Fold change in viability AVG” value ([7]; 1 ug/mL)?
Answer: The value was 1.17.

Question: What about the “Fold change in viability AVG” value ([7]; 10 ug/mL) of the same molecule?
Answer: Its value is 1.18.

Question: What about the “Fold change in viability AVG” value ([7]; 50 ug/mL) of the same molecule?
Answer: The value was 0.88.

Question: And the “Fold change in viability AVG” value ([7]; 100 ug/mL)?
Answer: Its value is 0.26.

Question: What about the viability at 1 µg/mL ([8]; Homo sapiens, THP-1, read-out: Average cell viability, THP-1, 1 ug/mL) of the same molecule?
Answer: The viability at 1 µg/mL was 102%.

Question: And the viability at 10 µg/mL ([8]; Homo sapiens, THP-1, read-out: Average cell viability, THP-1, 10 ug/mL)?
Answer: Its viability at 10 µg/mL is 99%.

Question: And the viability at 50 µg/mL ([8]; Homo sapiens, THP-1, read-out: Average cell viability, THP-1, 50 ug/mL)?
Answer: Its viability at 50 µg/mL is 72%.

Question: And the viability at 100 µg/mL ([8]; Homo sapiens, THP-1, read-out: Average cell viability, THP-1, 100 ug/mL)?
Answer: The viability at 100 µg/mL was 31%.

Question: And the “THP-1 AVG” value ([8]; THP-1, sample at 1 ug/mL)?
Answer: The value was 1.16.

Question: And the “THP-1 AVG” value ([8]; THP-1, sample at 10 ug/mL)?
Answer: Its value is 1.12.

Question: What about the “THP-1 AVG” value ([8]; THP-1, sample at 50 ug/mL) of the same molecule?
Answer: The value was 0.82.

Question: And the “THP-1 AVG” value ([8]; THP-1, sample at 100 ug/mL)?
Answer: The value was 0.35.

Question: What about the “Fold change in viability AVG” value ([8]; 1 ug/mL) of the same molecule?
Answer: Its value is 1.16.

Question: What about the “Fold change in viability AVG” value ([8]; 10 ug/mL) of the same molecule?
Answer: Its value is 1.12.

Question: And the “Fold change in viability AVG” value ([8]; 50 ug/mL)?
Answer: The value was 0.82.

Question: What about the “Fold change in viability AVG” value ([8]; 100 ug/mL) of the same molecule?
Answer: The value was 0.35.

Question: What about the viability at 1 µg/mL ([9]; Homo sapiens, SK-OV-3, read-out: Average cell viability, SKOV, 1 ug/mL) of the same molecule?
Answer: The viability at 1 µg/mL was 117%.

Question: What about the viability at 10 µg/mL ([9]; Homo sapiens, SK-OV-3, read-out: Average cell viability, SKOV, 10 ug/mL) of the same molecule?
Answer: Its viability at 10 µg/mL is 111%.

Question: And the viability at 50 µg/mL ([9]; Homo sapiens, SK-OV-3, read-out: Average cell viability, SKOV, 50 ug/mL)?
Answer: The viability at 50 µg/mL was 101%.

Question: What about the viability at 100 µg/mL ([9]; Homo sapiens, SK-OV-3, read-out: Average cell viability, SKOV, 100 ug/mL) of the same molecule?
Answer: Its viability at 100 µg/mL is 83%.

Question: And the “Fold change in viability AVG” value ([9]; 1 ug/mL)?
Answer: Its value is 1.26.

Question: What about the “Fold change in viability AVG” value ([9]; 10 ug/mL) of the same molecule?
Answer: Its value is 1.20.

Question: What about the “Fold change in viability AVG” value ([9]; 50 ug/mL) of the same molecule?
Answer: Its value is 1.09.

Question: And the “Fold change in viability AVG” value ([9]; 100 ug/mL)?
Answer: The value was 0.90.
